Laboratory results as given in PubChem BioAssay AID256 (DTP/NCI, 2004).
“And” between values parts separate entries of the source, which are not always exact repeats. Equal values may be shown once. Inconclusive results and toxic doses are left out. Rule for the calls: active = survival T/C of 150% or more; inactive = T/C below 125% in these data.

System: CD2F1 mice, L1210 leukemia ip, survival T/C
Test: NCI In Vivo Anticancer Drug Screen. Data for tumor model L1210 Leukemia (intraperitoneal) in CD2F1 (CDF1) mice
Conditions: higher = longer survival
Outline: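 Tumor-bearing mice (transplanted tumor) were split into treated and vehicle control groups, and the measured endpoint of each treated group was divided by that of its vehicle controls.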

[1] = endpoint: mean survival time, dose: 100.0 mg/kg/injection, schedule: Q01DX009 (ip), vehicle: saline
[2] = endpoint: mean survival time, dose: 200.0 mg/kg/injection, schedule: Q01DX009 (ip), vehicle: saline
[3] = endpoint: mean survival time, dose: 25.0 mg/kg/injection, schedule: Q04DX002 (ip), vehicle: saline with Tween-80
[4] = endpoint: mean survival time, dose: 50.0 mg/kg/injection, schedule: Q04DX002 (ip), vehicle: saline with Tween-80
[5] = endpoint: mean survival time, dose: 100.0 mg/kg/injection, schedule: Q04DX002 (ip), vehicle: saline with Tween-80
[6] = endpoint: mean survival time, dose: 100.0 mg/kg/injection, schedule: Q04DX003 (ip), vehicle: saline with Tween-80
[7] = endpoint: mean survival time, dose: 200.0 mg/kg/injection, schedule: Q04DX003 (ip), vehicle: saline with Tween-80
[8] = endpoint: mean survival time, dose: 400.0 mg/kg/injection, schedule: Q04DX003 (ip), vehicle: saline with Tween-80
[9] = endpoint: mean survival time, dose: 50.0 mg/kg/injection, schedule: Q01DX009 (ip), vehicle: saline with Tween-80
[10] = endpoint: mean survival time, dose: 100.0 mg/kg/injection, schedule: Q01DX009 (ip), vehicle: saline with Tween-80
[11] = endpoint: mean survival time, dose: 200.0 mg/kg/injection, schedule: Q01DX009 (ip), vehicle: saline with Tween-80
[12] = endpoint: mean survival time, dose: 400.0 mg/kg/injection, schedule: Q01DX009 (ip), vehicle: saline with Tween-80
[13] = endpoint: mean survival time, dose: 50.0 mg/kg/injection, schedule: Q01DX009 (ip), vehicle: saline
[14] = endpoint: mean survival time, dose: 200.0 mg/kg/injection, schedule: Q04DX003 (ip), vehicle: saline

Measured: T/C

O=P(O)(O)OP(=O)(O)O.[NH-]CC[NH-].[NH-]CC[NH-].[Pd+2].[Pd+2]
inactive: endpoint: mean survival time, dose: 3.13 mg/kg/injection, schedule: Q04DX003 (ip), vehicle: distilled water + Tween-80 98 % of control | endpoint: mean survival time, dose: 6.25 mg/kg/injection, schedule: Q04DX003 (ip), vehicle: distilled water + Tween-80 93 % of control | endpoint: mean survival time, dose: 12.5 mg/kg/injection, schedule: Q04DX003 (ip), vehicle: distilled water + Tween-80 87 % of control | endpoint: mean survival time, dose: 25.0 mg/kg/injection, schedule: Q04DX003 (ip), vehicle: distilled water + Tween-80 96 % of control | endpoint: mean survival time, dose: 50.0 mg/kg/injection, schedule: Q04DX003 (ip), vehicle: distilled water + Tween-80 100 % of control | endpoint: mean survival time, dose: 100.0 mg/kg/injection, schedule: Q04DX003 (ip), vehicle: distilled water + Tween-80 105 % of control

CN(CCC#N)C1=CCCC1
inactive: [1] 102 % of control | [2] 112 % of control | endpoint: mean survival time, dose: 400.0 mg/kg/injection, schedule: Q01DX009 (ip), vehicle: saline 105 % of control

CCCNCCNc1ccc(NCCNCCC)c2c1C(=O)c1ccccc1C2=O
inactive: endpoint: mean survival time, dose: 4.0 mg/kg/injection, schedule: Q01DX009 (ip), vehicle: acid diluted with saline 100 % of control | endpoint: mean survival time, dose: 8.0 mg/kg/injection, schedule: Q01DX009 (ip), vehicle: acid diluted with saline 110 % of control | endpoint: mean survival time, dose: 16.0 mg/kg/injection, schedule: Q01DX009 (ip), vehicle: acid diluted with saline 110 % of control | endpoint: mean survival time, dose: 32.0 mg/kg/injection, schedule: Q01DX009 (ip), vehicle: acid diluted with saline 93 % of control

COc1ccc(NC(=O)Nc2ccccc2Cl)c(OC)c1
inactive: [3] 94 % of control | [4] 87 % of control | [5] 102 % of control

c1ccc(CSC2=NCCS2)cc1
inactive: [6] 108 % of control | [7] 98 % of control | [8] 97 % of control

CC(C)/C=C\C=C\C(C)C
inactive: [9] 96 % of control | [10] 103 % of control | [11] 96 % of control

CCCC(C)C1C(=O)N(C)C(=O)N(C)C1=O (stereo unspecified)
inactive: endpoint: mean survival time, dose: 75.0 mg/kg/injection, schedule: Q01DX001 (ip), vehicle: saline 104 % of control | endpoint: mean survival time, dose: 150.0 mg/kg/injection, schedule: Q01DX001 (ip), vehicle: saline 103 % of control | endpoint: mean survival time, dose: 300.0 mg/kg/injection, schedule: Q01DX001 (ip), vehicle: saline 98 % of control

CCCCCCCCCC(=O)N1CC[N+](C)(C)CC1
inactive: endpoint: mean survival time, dose: 5.0 mg/kg/injection, schedule: Q01DX001 (ip), vehicle: saline 102 % of control | endpoint: mean survival time, dose: 10.0 mg/kg/injection, schedule: Q01DX001 (ip), vehicle: saline 105 % of control | endpoint: mean survival time, dose: 20.0 mg/kg/injection, schedule: Q01DX001 (ip), vehicle: saline 104 % of control

Cc1cc(Cl)ccc1NC(=O)N1CCCC(C)C1 (stereo unspecified)
inactive: endpoint: mean survival time, dose: 12.5 mg/kg/injection, schedule: Q01DX009 (ip), vehicle: saline with Tween-80 95 % of control | endpoint: mean survival time, dose: 25.0 mg/kg/injection, schedule: Q01DX009 (ip), vehicle: saline with Tween-80 102 % of control | [9] 91 % of control

O=C(OCc1ccccc1)OC1C2COC(O2)C(OC(=O)OCc2ccccc2)C1O (stereo unspecified)
inactive: [10] 95 % of control | [11] 95 % of control | [12] 89 % of control

Nn1cnnc1
inactive: endpoint: mean survival time, dose: 100.0 mg/kg/injection, schedule: Q01DX001 (ip), vehicle: saline 98 % of control | endpoint: mean survival time, dose: 200.0 mg/kg/injection, schedule: Q01DX001 (ip), vehicle: saline 93 % of control

C=CCNC(=S)n1cnc(N)n1
inactive: [3] 104 % of control | [4] 96 % of control | [5] 104 % of control and 105 % of control

O=C(/C=C(\Cl)C(=O)NO)NO
inactive: endpoint: mean survival time, dose: 6.25 mg/kg/injection, schedule: Q01DX009 (ip), vehicle: saline 101 % of control and 103 % of control | endpoint: mean survival time, dose: 12.5 mg/kg/injection, schedule: Q01DX009 (ip), vehicle: saline 94 % of control and 104 % of control | endpoint: mean survival time, dose: 25.0 mg/kg/injection, schedule: Q01DX009 (ip), vehicle: saline 95 % of control and 100 % of control | [13] 115 % of control and 108 % of control | [1] 113 % of control and 95 % of control

CCC1(CC)C(=O)C=CNC1=O
inactive: [9] 100 % of control | [10] 94 % of control | [11] 103 % of control

CCC(C)C(=O)CN(C)C (stereo unspecified)
inactive: endpoint: mean survival time, dose: 100.0 mg/kg/injection, schedule: Q04DX003 (ip), vehicle: saline 100 % of control | [14] 96 % of control

CSc1nc(N)nc2n[nH]nc12
inactive: endpoint: mean survival time, dose: 100.0 mg/kg/injection, schedule: Q01DX001 (ip), vehicle: Klucel (hydroxypropylcellulose) (HPC) 97 % of control | endpoint: mean survival time, dose: 200.0 mg/kg/injection, schedule: Q01DX001 (ip), vehicle: Klucel (hydroxypropylcellulose) (HPC) 105 % of control | endpoint: mean survival time, dose: 400.0 mg/kg/injection, schedule: Q01DX001 (ip), vehicle: Klucel (hydroxypropylcellulose) (HPC) 103 % of control

COC(=O)c1ccc(NCC(=N)N)cc1
inactive: [13] 100 % of control | [1] 122 % of control | [2] 100 % of control

CN(C)c1ccc(CN2CCCN(Cc3ccc(N(C)C)cc3)C2c2cc(Cl)ccc2O)cc1
inactive: [10] 86 % of control | [6] 98 % of control | [11] 93 % of control | [7] 92 % of control | [12] 86 % of control | [8] 92 % of control

[O-][N+](=C(c1ccccc1)c1ccccc1)c1ccccc1
inactive: endpoint: mean survival time, dose: 75.0 mg/kg/injection, schedule: Q01DX009 (ip), vehicle: saline with Tween-80 96 % of control | endpoint: mean survival time, dose: 150.0 mg/kg/injection, schedule: Q01DX009 (ip), vehicle: saline with Tween-80 94 % of control | endpoint: mean survival time, dose: 300.0 mg/kg/injection, schedule: Q01DX009 (ip), vehicle: saline with Tween-80 94 % of control

OC1COC(c2cnn(-c3ccccc3)n2)C1O (stereo unspecified)
inactive: endpoint: median survival time, dose: 12.5 mg/kg/injection, schedule: Q01DX005 (ip), vehicle: water 105 % of control and 110 % of control | endpoint: median survival time, dose: 25.0 mg/kg/injection, schedule: Q01DX005 (ip), vehicle: water 103 % of control | endpoint: median survival time, dose: 50.0 mg/kg/injection, schedule: Q01DX005 (ip), vehicle: water 105 % of control and 103 % of control | endpoint: median survival time, dose: 100.0 mg/kg/injection, schedule: Q01DX005 (ip), vehicle: water 103 % of control and 104 % of control | endpoint: median survival time, dose: 200.0 mg/kg/injection, schedule: Q01DX005 (ip), vehicle: water 100 % of control and 103 % of control | endpoint: median survival time, dose: 400.0 mg/kg/injection, schedule: Q01DX005 (ip), vehicle: water 107 % of control

N\C([S-])=N/N=C\C(=N/N=C(\N)[S-])C(O)C(O)C(O)CO.[Fe+2] (stereo unspecified)
inactive: endpoint: mean survival time, dose: 100.0 mg/kg/injection, schedule: Q01DX009 (ip), vehicle: saline sonified 91 % of control | endpoint: mean survival time, dose: 200.0 mg/kg/injection, schedule: Q01DX009 (ip), vehicle: saline sonified 92 % of control

OCCN1CCN(CCCN2c3ccccc3Sc3ccc(Cl)cc32)CC1
inactive: endpoint: mean survival time, dose: 6.25 mg/kg/injection, schedule: Q01DX009 (ip), vehicle: Klucel (hydroxypropylcellulose) (HPC) 93 % of control | endpoint: mean survival time, dose: 6.25 mg/kg/injection, schedule: Q04DX002 (ip), vehicle: Klucel (hydroxypropylcellulose) (HPC) 96 % of control | endpoint: mean survival time, dose: 12.5 mg/kg/injection, schedule: Q01DX009 (ip), vehicle: Klucel (hydroxypropylcellulose) (HPC) 96 % of control | endpoint: mean survival time, dose: 12.5 mg/kg/injection, schedule: Q04DX002 (ip), vehicle: Klucel (hydroxypropylcellulose) (HPC) 91 % of control | endpoint: mean survival time, dose: 25.0 mg/kg/injection, schedule: Q01DX009 (ip), vehicle: Klucel (hydroxypropylcellulose) (HPC) 116 % of control | endpoint: mean survival time, dose: 25.0 mg/kg/injection, schedule: Q04DX003 (ip), vehicle: saline 108 % of control and 110 % of control | endpoint: mean survival time, dose: 25.0 mg/kg/injection, schedule: Q04DX009 (ip), vehicle: Klucel (hydroxypropylcellulose) (HPC) 113 % of control | endpoint: mean survival time, dose: 50.0 mg/kg/injection, schedule: Q04DX003 (ip), vehicle: saline 110 % of control | [14] 116 % of control
